This is an account of results in ChEMBL document CHEMBL4739710, “Tetrahydropyridopyrazines as modulators of GPR6” (2020).

The structures appear in SMILES notation.

For the assay, the target named is G-protein coupled receptor 6 (Homo sapiens, UniProt P46095). In words: Modulation of GPR6 (unknown origin) expressed in CHO-K1 cells assessed as inhibition of constitutive cAMP activity by HTRF assay. It is filed as functional, cell-based. Background: TR-FRET usually uses a lanthanide donor and a delayed reading to cut background.
Chain of G-protein coupled receptor 6 (P46095 whole entry): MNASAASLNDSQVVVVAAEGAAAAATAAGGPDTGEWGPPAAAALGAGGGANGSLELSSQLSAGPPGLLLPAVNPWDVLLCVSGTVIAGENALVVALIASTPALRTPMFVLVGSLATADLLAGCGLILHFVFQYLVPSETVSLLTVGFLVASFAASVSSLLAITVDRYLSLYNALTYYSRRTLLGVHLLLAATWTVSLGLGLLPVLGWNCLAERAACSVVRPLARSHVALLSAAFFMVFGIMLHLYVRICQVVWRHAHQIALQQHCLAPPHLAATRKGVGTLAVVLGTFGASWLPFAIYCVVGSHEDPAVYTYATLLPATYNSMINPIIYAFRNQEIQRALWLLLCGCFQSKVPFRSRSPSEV

As a reminder, the EC50 is the midpoint of the concentration-response curve. Take `Cc1cc2nc(N[C@@H]3CCOC3)c(N3CCN(Cc4ccc(F)cc4F)CC3)nc2cn1`: the EC50 came to 0.0479 µM.
